According to patent publication US7713971B2, “1,2,4-triazine derivatives, preparation and use thereof in human therapy” (Pierre Fabre Medicament, priority 2005, dated 2010):
pEC50: −log10 of the molar value. Like-named read-outs stand apart in the source and are kept apart here.

How the values were obtained:
human PPARα = target: T1, human PPARα (Homo sapiens, UniProt Q07869); experiment: Reporter gene transactivation, hPPAR-GAL4 alpha; assay type: cell-based; conditions: transfected Cos-7 cells, Gal-4 luciferase reporter, 24 hours treatment
T1 construct: expressed in transfected cells; host or cells: Cos-7 cells (ATCC, CRL-1651)
T1 sequence (Q07869 239-466 limits assumed): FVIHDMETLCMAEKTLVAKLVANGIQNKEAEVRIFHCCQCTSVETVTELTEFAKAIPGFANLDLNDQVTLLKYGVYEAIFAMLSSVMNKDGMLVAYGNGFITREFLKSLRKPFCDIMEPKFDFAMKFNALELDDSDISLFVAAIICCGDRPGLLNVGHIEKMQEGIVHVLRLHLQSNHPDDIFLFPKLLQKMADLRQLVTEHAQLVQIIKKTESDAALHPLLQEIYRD

human PPARγ = target: T2, human PPARγ (Homo sapiens, UniProt P37231); experiment: Reporter gene transactivation, hPPAR-GAL4 gamma; assay type: cell-based; conditions: transfected Cos-7 cells, Gal-4 luciferase reporter, 24 hours treatment
T2 construct: expressed in transfected cells; host or cells: Cos-7 cells (ATCC, CRL-1651)
T2 sequence (P37231 238-503 limits assumed): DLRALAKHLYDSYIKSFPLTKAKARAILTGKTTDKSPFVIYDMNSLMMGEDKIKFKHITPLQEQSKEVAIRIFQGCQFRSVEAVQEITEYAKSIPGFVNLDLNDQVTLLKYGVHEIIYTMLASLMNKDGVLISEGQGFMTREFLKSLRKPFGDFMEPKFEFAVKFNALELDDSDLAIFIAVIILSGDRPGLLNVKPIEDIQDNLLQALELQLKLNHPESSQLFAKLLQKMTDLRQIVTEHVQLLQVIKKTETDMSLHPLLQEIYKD

[1] = system: insulin-resistant male rat (Ico: ZUCKER-fa/fa); experiment: Normalization of metabolic parameters (cholesterol, plasma triglycerides) in insulin-resistant rat; assay type: in vivo; conditions: oral route, once per day for four days, Zucker fa/fa rat unfed 16-18 hours; for change in vivo at 2.5 mg/kg / change in vivo at 10 mg/kg: 96 h
Protocol: Normalization of metabolic parameters (cholesterol, plasma triglycerides) in an insulin-resistant male rat (Ico: ZUCKER-fa/fa), unfed for 16-18 hours, after treatment by oral route, once per day for four days, with the compounds to be evaluated or their administration vehicle.
These metabolic parameters are measured by spectrophotometry at the beginning and the end of each animal's treatment.

[2] = at 2.5 mg/kg, read-out: Plasma cholesterol
[3] = at 10 mg/kg, read-out: Plasma cholesterol
[4] = at 10 mg/kg, read-out: Plasma triglycerides

| SMILES | pEC50 (human PPARα) | pEC50 (human PPARγ) | other results |
| --- | --- | --- | --- |
| CCCCCCCn1nc(NCCCCc2cccc(OC(C)(C)C(=O)OCC)c2)c(=O)n(C)c1=O [Example 75, Ethyl 2-{3-[4-(2-heptyl-4-methyl-3,5-dioxo-2,3,4,5-tetrahydro-[1,2,4]triazin-6-ylamino)-butyl]-phenoxy}-2-methyl-propionate] | 5.00 to 5.52 | 5.00 to 5.52 | change in vivo at 2.5 mg/kg [1, 2]: -19%; change in vivo at 10 mg/kg [1, 3]: -13%; Plasma triglycerides ([1]; at 10 mg/kg): active at 10 |
| CCOC(=O)C(C)(C)Oc1cccc(CCCCNc2nn(CCC#N)c(=O)n(CCCC(F)(F)F)c2=O)c1 [Example 81, Ethyl 2-(3-{4-[2-(2-cyano-ethyl)-3,5-dioxo-4-(4,4,4-trifluoro-butyl)-2,3,4,5-tetrahydro-[1,2,4]triazin-6-ylamino]-butyl}-phenoxy)-2-methyl-propionate] | 6.00 to 6.52 | < 5.00 | change in vivo at 10 mg/kg [1, 3]: -12%; change in vivo at 10 mg/kg [1, 4]: -17% |
| CCOC(=O)C(C)(C)Oc1cccc(CCCCCOc2nn(C)c(=O)n(CCCC(F)(F)F)c2=O)c1 [Example 16, Ethyl 2-methyl-2-(3-{5-[2-methyl-3,5-dioxo-4-(4,4,4-trifluoro-butyl)-2,3,4,5-tetrahydro-[1,2,4]triazin-6-yloxy]-pentyl}-phenoxy)-propionate] | ~7.00 | 5.00 to 5.52 | change in vivo at 2.5 mg/kg [1, 2]: -14%; change in vivo at 10 mg/kg [1, 3]: -25%; change in vivo at 10 mg/kg [1, 4]: -15%; Plasma triglycerides ([1]; at 2.5 mg/kg): inactive at 2.5 |
| CCCCCCCn1c(=O)c(NCCc2ccc(SC(C)(C)C(=O)O)cc2)nn(CCCC(F)(F)F)c1=O [Example 123, 2-(4-{2-[4-Heptyl-3,5-dioxo-2-(4,4,4-trifluoro-butyl)-2,3,4,5-tetrahydro-[1,2,4]triazin-6-ylamino]-ethyl}-phenylsulfanyl)-2-methyl-propionic Acid] | 6.52 to 7.00 | ~5.00 | change in vivo at 2.5 mg/kg [1, 2]: -8%; change in vivo at 2.5 mg/kg ([1]; at 2.5 mg/kg, read-out: Plasma triglycerides): -6%; change in vivo at 10 mg/kg [1, 3]: -14%; change in vivo at 10 mg/kg [1, 4]: -20% |
| CCCCCCCn1c(=O)c(OCCCc2cccc(OC(C)(C)C(=O)OCC)c2)nn(C)c1=O [Example 7, Ethyl 2-{3-[3-(4-heptyl-2-methyl-3,5-dioxo-2,3,4,5-tetrahydro-[1,2,4]triazin-6-yloxy)-propyl]-phenoxy}-2-methyl-propionate] | 6.00 to 6.52 | 5.52 to 6.00 |  |
| CCCCCCCn1nc(NCCc2cccc(OC(C)(C)C(=O)OCC)c2)c(=O)n(C)c1=O [Example 57, Ethyl 2-{3-[2-(2-heptyl-4-methyl-3,5-dioxo-2,3,4,5-tetrahydro-[1,2,4]triazin-6-ylamino)-ethyl]-phenoxy}-2-methyl-propionate] | ~5.52 | 5.52 to 6.00 |  |
| CCOC(=O)C(C)(C)Oc1ccc(CCCCOc2nn(C)c(=O)n(CCCC(F)(F)F)c2=O)cc1 [Example 30, Ethyl 2-methyl-2-(4-{4-[2-methyl-3,5-dioxo-4-(4,4,4-trifluoro-butyl)-2,3,4,5-tetrahydro-[1,2,4]triazin-6-yloxy]-butyl}-phenoxy)-propionate] | 7.00 to 7.52 | < 5.00 |  |
| CCOC(=O)C(C)(C)Sc1cccc(CCCCNc2nn(CCCC(F)(F)F)c(=O)n(Cc3ccccc3)c2=O)c1 [Example 100, Ethyl 2-(3-{4-[4-Benzyl-3,5-dioxo-2-(4,4,4-trifluoro-butyl)-2,3,4,5-tetrahydro-[1,2,4]triazin-6-ylamino]-butyl}-phenylsulfanyl)-2-methyl-propionate] | 5.52 to 6.00 | < 5.00 |  |
| CCCCCCCn1nc(NCCCc2ccc(SC(C)(C)C(=O)OCC)cc2)c(=O)n(C)c1=O [Example 124, Ethyl 2-{4-[3-(2-heptyl-4-methyl-3,5-dioxo-2,3,4,5-tetrahydro-[1,2,4]triazin-6-ylamino)propyl]-phenylsulfanyl}-2-methyl-propionate] | 6.00 to 6.52 | < 5.00 |  |
| CCCCCCCn1nc(NCCCc2cccc(OC(C)(C)C(=O)OCC)c2)c(=O)n(CCCCCCC)c1=O [Example 69, Ethyl 2-{3-[3-(2,4-diheptyl-3,5-dioxo-2,3,4,5-tetrahydro-[1,2,4]triazin-6-ylamino)-propyl]-phenoxy}-2-methyl-propionate] | 5.52 to 6.00 | ~5.00 |  |
| CCCCCCCn1nc(OCCOc2ccc(SC(C)(C)C(=O)OCC)cc2)c(=O)n(C)c1=O [Example 38, Ethyl 2-{4-[2-(2-heptyl-4-methyl-3,5-dioxo-2,3,4,5-tetrahydro-[1,2,4]triazin-6-yloxy)-ethoxy]-phenylsulfanyl}-2-methyl-propionate] | < 5.00 | < 5.00 |  |
| CCCCCCCn1c(=O)c(NCCCOc2ccc(SC(C)(C)C(=O)OCC)cc2)nn(C)c1=O [Example 49, Ethyl 2-{4-[3-(4-heptyl-2-methyl-3,5-dioxo-2,3,4,5-tetrahydro-[1,2,4]triazin-6-ylamino)-propoxy]-phenylsulfanyl}-2-methyl-propionate] | < 5.00 | < 5.00 |  |
| CCCCCCCn1nc(OCCCOc2cccc(OC(C)(C)C(=O)OCC)c2)c(=O)n(C)c1=O [Example 33, Ethyl 2-{3-[3-(2-heptyl-4-methyl-3,5-dioxo-2,3,4,5-tetrahydro-[1,2,4]triazin-6-yloxy)-propoxy]-phenoxy}-2-methyl-propionate] | ~5.52 | ~5.52 |  |
| CCCCn1c(=O)c(OCCCCCc2cccc(OC(C)(C)C(=O)O)c2)nn(C)c1=O [Example 12, 2-{3-[5-(4-Butyl-2-methyl-3,5-dioxo-2,3,4,5-tetrahydro-[1,2,4]triazin-6-yloxy)-pentyl]-phenoxy}-2-methyl-propionic Acid] | ~7.52 | 5.52 to 6.00 |  |
| CCCCCCCn1nc(OCCCc2cccc(OC(C)(C)C(=O)OCC)c2)c(=O)n(C)c1=O [Example 5, Ethyl 2-{3-[3-(2-heptyl-4-methyl-3,5-dioxo-2,3,4,5-tetrahydro-[1,2,4]triazin-6-yloxy)-propyl]-phenoxy}-2-methyl-propionate] | ~5.52 | ~5.00 |  |
| CCOC(=O)C(C)(C)Oc1ccc(OCCCNc2nn(CCCC(F)(F)F)c(=O)n(C)c2=O)cc1 [Example 44, Ethyl 2-methyl-2-(4-{3-[4-methyl-3,5-dioxo-2-(4,4,4-trifluoro-butyl)-2,3,4,5-tetrahydro-[1,2,4]triazin-6-ylamino]-propoxy}-phenoxy)-propionate] | < 5.00 | 5.00 to 5.52 |  |
| CCCCCCCn1nc(OCCc2cccc(OC(C)(C)C(=O)OCC)c2)c(=O)n(C)c1=O [Example 2, Ethyl 2-{3-[2-(2-heptyl-4-methyl-3,5-dioxo-2,3,4,5-tetrahydro-[1,2,4]triazin-6-yloxy)-ethyl]-phenoxy}-2-methyl-propionate] | < 5.00 | ~5.00 |  |
| CCCCCCCn1c(=O)c(OCCCCCc2cccc(OC(C)(C)C(=O)OCC)c2)nn(CCCC(F)(F)F)c1=O [Example 18, Ethyl 2-(3-{5-[4-heptyl-3,5-dioxo-2-(4,4,4-trifluoro-butyl)-2,3,4,5-tetrahydro-[1,2,4]triazin-6-yloxy]-pentyl}-phenoxy)-2-methyl-propionate] | 7.00 to 7.52 | ~6.00 |  |
| CCCCCCCn1c(=O)c(NCCCc2cccc(OC(C)(C)C(=O)OCC)c2)nn(Cc2ccccc2)c1=O [Example 70, Ethyl 2-{3-[3-(2-benzyl-4-heptyl-3,5-dioxo-2,3,4,5-tetrahydro-[1,2,4]triazin-6-ylamino)-propyl]-phenoxy}-2-methyl-propionate] | ~6.00 | ~5.00 |  |
| CCCCCCCn1nc(NCCCCc2cccc(OC(C)(C)C(=O)OCC)c2)c(=O)n(Cc2ccccc2)c1=O [Example 91, Ethyl 2-{3-[4-(4-benzyl-2-heptyl-3,5-dioxo-2,3,4,5-tetrahydro-[1,2,4]triazin-6-ylamino)-butyl]-phenoxy}-2-methyl-propionate] | 6.00 to 6.52 | 5.00 to 5.52 |  |
| CCCCCCCn1nc(OCCCCOc2cccc(SC(C)(C)C(=O)OCC)c2)c(=O)n(C)c1=O [Example 37, Ethyl 2-{3-[4-(2-heptyl-4-methyl-3,5-dioxo-2,3,4,5-tetrahydro-[1,2,4]triazin-6-yloxy)-butoxy]-phenylsulfanyl}-2-methyl-propionate] | < 5.00 | ~5.00 |  |
| CCCCCCCn1c(=O)c(NCCCCOc2ccc(OC(C)(C)C(=O)OCC)cc2)nn(C)c1=O [Example 50, Ethyl 2-{4-[4-(4-heptyl-2-methyl-3,5-dioxo-2,3,4,5-tetrahydro-[1,2,4]triazin-6-ylamino)-butoxy]-phenoxy}-2-methyl-propionate] | < 5.00 | ~5.00 |  |
